From patent US10278984B2, “Guanosine as an immune potentiator mediated through toll receptors” (Nitor Therapeutics, priority 2014, dated 2019)

Tests used:
human TLR9 = molecular target: T1, human TLR9 (Homo sapiens, UniProt Q9NR96); assay: TLR ligand screening: NF-κB SEAP reporter, agonist; assay type: cell-based; settings: HEK293 cells expressing TLR9; NTR001 10 uM, inosine 100 uM
T1 construct: expressed in transfected cells; host or cells: HEK293
T1 sequence (Q9NR96 26-1032): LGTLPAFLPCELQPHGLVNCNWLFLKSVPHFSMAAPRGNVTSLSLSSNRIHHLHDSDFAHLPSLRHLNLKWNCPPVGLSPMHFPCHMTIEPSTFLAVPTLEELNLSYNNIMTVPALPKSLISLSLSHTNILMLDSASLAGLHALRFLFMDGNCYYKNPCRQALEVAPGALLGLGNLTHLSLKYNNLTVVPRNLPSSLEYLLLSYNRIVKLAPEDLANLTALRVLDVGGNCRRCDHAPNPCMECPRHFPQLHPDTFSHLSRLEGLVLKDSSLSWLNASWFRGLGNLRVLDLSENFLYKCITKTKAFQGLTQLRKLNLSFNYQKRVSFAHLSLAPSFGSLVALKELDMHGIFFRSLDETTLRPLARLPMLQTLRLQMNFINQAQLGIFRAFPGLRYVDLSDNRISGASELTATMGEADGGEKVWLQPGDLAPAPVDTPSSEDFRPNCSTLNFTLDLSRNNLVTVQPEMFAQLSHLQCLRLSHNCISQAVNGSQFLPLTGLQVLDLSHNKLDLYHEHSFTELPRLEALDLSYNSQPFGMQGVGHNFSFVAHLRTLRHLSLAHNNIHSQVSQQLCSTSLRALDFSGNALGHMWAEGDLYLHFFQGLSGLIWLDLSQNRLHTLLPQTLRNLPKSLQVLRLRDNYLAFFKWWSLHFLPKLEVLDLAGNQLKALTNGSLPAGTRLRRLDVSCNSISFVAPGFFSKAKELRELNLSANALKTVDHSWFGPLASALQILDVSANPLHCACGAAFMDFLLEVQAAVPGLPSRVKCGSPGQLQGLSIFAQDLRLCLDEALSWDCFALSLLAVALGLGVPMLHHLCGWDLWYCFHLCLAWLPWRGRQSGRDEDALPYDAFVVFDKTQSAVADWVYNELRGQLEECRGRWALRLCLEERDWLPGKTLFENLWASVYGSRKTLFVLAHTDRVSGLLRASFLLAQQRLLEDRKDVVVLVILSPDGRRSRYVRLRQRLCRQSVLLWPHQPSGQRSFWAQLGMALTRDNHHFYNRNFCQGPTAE
Method: (§1) Method: TLR stimulation is tested by assessing NF-κB activation in HEK293 cells expressing a given TLR. The Secreted Embryonic Alkaline Phosphatase (SEAP) reporter is under the control of a promoter inducible by the transcription factor NF-κB. This reporter gene allows the monitoring of signaling through the TLR based on the activation of NF-κB. The activity of the compounds is tested on seven different human TLRs (TLR2, 3, 4, 5, 7, 8 and 9) as a potential agonist. The compounds are evaluated at one concentration and compared to control ligands. This step is performed in triplicate.

human TLR2 = molecular target: T2, human TLR2 (Homo sapiens, UniProt O60603); assay: TLR ligand screening: NF-κB SEAP reporter, agonist; assay type: cell-based; settings: HEK293 cells expressing TLR2; guanosine 100 uM, NTR001 10 uM, inosine 100 uM; triplicate
T2 construct: expressed in transfected cells; host or cells: HEK293
T2 sequence (O60603 21-784): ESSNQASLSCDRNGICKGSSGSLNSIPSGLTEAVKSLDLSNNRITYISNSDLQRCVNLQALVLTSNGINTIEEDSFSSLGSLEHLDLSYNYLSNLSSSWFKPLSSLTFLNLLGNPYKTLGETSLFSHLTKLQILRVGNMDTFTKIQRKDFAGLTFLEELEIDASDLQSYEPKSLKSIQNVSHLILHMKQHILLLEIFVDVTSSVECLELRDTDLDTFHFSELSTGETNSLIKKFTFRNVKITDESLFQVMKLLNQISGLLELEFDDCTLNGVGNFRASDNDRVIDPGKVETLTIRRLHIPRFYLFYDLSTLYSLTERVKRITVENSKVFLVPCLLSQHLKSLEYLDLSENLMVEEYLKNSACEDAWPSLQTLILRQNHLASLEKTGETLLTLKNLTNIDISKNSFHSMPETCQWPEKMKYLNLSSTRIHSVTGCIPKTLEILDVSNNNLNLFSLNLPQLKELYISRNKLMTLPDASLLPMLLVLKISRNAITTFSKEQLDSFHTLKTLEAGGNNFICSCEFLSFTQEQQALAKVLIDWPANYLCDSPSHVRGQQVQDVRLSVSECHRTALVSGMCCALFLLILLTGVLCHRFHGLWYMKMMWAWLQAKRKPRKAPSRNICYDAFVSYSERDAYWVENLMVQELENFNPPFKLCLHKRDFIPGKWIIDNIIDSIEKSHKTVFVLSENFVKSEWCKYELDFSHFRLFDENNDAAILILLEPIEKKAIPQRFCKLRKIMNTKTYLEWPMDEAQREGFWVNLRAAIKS
Method: as §1

human TLR4 = molecular target: T3, human TLR4 (Homo sapiens, UniProt O00206+Q9Y6Y9); assay: TLR ligand screening: NF-κB SEAP reporter, agonist; assay type: cell-based; settings: HEK293 cells expressing TLR4; guanosine 100 uM, NTR001 10 uM, inosine 100 uM; triplicate
T3 construct: expressed in transfected cells; host or cells: HEK293
T3 sequence (O00206 24-839): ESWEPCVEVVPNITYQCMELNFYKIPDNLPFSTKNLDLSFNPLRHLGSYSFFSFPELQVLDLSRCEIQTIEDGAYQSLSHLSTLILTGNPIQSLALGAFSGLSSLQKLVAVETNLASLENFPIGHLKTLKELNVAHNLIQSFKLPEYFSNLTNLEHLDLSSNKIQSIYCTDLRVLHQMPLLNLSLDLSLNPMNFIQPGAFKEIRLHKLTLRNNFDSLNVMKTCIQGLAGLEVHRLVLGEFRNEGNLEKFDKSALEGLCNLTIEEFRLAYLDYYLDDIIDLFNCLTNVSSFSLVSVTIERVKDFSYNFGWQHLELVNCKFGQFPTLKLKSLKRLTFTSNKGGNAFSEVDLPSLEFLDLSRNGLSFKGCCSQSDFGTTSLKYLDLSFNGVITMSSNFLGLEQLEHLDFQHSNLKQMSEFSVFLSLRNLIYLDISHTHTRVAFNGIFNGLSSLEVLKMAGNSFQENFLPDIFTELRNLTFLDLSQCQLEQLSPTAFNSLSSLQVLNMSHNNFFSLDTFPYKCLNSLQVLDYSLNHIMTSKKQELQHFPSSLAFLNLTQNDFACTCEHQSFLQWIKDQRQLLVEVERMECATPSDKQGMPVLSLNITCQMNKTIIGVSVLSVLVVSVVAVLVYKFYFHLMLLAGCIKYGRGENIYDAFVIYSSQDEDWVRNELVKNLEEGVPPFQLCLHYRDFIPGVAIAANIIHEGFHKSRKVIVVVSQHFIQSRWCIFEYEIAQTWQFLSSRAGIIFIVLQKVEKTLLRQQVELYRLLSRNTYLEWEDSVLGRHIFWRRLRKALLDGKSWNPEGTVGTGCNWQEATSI
T3 sequence (Q9Y6Y9 17-160 limits assumed): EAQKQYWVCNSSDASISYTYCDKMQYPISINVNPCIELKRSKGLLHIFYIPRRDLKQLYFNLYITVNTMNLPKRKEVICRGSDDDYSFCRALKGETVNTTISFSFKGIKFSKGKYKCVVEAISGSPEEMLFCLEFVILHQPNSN
Method: as §1

human TLR5 = molecular target: T4, human TLR5 (Homo sapiens, UniProt O60602); assay: TLR ligand screening: NF-κB SEAP reporter, agonist; assay type: cell-based; settings: HEK293 cells expressing TLR5; NTR001 10 uM, inosine 100 uM
T4 construct: expressed in transfected cells; host or cells: HEK293
T4 sequence (O60602 21-858): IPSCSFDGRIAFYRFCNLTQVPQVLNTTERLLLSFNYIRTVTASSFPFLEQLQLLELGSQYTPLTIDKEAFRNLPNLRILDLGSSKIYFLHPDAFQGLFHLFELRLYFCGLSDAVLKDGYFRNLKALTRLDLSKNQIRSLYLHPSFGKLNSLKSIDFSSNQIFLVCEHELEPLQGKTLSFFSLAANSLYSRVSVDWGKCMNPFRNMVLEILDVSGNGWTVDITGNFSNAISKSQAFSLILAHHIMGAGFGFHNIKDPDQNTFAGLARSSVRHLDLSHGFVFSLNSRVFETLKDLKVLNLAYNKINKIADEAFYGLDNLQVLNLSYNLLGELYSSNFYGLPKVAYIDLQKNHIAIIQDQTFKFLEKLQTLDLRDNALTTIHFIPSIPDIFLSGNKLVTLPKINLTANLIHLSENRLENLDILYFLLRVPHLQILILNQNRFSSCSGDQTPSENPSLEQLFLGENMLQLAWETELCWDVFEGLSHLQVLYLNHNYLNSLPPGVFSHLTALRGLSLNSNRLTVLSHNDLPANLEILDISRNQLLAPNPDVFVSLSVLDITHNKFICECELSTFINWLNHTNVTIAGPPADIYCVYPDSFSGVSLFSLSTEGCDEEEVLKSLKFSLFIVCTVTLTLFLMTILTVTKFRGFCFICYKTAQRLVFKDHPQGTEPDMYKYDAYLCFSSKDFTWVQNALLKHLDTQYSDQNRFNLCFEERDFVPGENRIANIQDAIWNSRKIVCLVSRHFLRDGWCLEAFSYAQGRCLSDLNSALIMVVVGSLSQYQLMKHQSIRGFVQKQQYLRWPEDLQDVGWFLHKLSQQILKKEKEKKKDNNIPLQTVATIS
Method: as §1

human TLR8 = molecular target: T5, human TLR8 (Homo sapiens, UniProt Q9NR97); assay: TLR ligand screening: NF-κB SEAP reporter, agonist; assay type: cell-based; settings: HEK293 cells expressing TLR8; NTR001 10 uM, inosine 100 uM
T5 construct: expressed in transfected cells; host or cells: HEK293
T5 sequence (Q9NR97 27-1041): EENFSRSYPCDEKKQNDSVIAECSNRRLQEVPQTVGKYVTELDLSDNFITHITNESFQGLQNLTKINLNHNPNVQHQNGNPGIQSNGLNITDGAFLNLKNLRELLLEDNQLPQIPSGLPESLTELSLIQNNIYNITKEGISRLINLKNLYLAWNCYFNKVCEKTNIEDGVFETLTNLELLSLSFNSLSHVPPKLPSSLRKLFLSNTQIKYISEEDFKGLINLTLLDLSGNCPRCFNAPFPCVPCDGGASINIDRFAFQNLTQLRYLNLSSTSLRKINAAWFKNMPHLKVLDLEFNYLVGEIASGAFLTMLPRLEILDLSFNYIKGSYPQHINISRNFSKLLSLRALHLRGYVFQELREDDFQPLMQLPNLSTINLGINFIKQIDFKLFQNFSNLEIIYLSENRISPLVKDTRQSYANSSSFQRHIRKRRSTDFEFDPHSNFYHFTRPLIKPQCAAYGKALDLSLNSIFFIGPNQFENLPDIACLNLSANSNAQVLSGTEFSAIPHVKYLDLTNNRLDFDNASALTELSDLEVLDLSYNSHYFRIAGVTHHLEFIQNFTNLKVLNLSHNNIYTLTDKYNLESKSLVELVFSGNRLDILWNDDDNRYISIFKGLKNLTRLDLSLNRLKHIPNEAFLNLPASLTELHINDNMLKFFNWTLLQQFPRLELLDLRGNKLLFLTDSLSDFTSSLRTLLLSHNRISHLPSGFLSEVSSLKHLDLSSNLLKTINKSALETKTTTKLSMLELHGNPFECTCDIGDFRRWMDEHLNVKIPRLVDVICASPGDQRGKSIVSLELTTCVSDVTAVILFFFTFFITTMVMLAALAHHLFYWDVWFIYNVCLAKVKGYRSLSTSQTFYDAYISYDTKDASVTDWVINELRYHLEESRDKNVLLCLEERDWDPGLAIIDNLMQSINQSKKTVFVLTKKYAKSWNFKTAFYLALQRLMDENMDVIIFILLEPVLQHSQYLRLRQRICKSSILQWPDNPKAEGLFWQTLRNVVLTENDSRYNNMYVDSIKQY
Method: as §1

human TLR3 = molecular target: T6, human TLR3 (Homo sapiens, UniProt O15455); assay: TLR ligand screening: NF-κB SEAP reporter, agonist; assay type: cell-based; settings: HEK293 cells expressing TLR3; NTR001 10 uM, inosine 100 uM
T6 construct: expressed in transfected cells; host or cells: HEK293
T6 sequence (O15455 24-904): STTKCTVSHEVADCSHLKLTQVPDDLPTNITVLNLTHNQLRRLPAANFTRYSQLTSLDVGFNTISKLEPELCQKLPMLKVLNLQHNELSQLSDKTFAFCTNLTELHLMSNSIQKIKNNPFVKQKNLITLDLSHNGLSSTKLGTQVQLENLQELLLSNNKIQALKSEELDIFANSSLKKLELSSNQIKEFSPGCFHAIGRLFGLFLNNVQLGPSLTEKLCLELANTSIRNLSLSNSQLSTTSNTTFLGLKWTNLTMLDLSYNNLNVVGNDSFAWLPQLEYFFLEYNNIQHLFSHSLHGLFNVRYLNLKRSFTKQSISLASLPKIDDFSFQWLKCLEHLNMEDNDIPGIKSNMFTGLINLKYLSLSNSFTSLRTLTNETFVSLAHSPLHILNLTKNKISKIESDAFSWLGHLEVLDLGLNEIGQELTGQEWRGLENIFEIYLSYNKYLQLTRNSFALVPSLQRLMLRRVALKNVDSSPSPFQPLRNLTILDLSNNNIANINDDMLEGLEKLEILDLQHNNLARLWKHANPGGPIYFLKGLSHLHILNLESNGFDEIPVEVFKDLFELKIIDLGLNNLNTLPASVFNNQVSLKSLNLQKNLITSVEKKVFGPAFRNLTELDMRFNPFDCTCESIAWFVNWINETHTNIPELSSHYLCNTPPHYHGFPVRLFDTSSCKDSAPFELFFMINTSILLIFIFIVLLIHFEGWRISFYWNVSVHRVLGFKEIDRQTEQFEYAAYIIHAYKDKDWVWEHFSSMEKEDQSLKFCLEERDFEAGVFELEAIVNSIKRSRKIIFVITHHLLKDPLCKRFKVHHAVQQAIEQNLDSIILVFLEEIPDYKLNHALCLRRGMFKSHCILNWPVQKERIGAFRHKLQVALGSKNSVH
Method: as §1

human TLR7 = molecular target: T7, human TLR7 (Homo sapiens, UniProt Q9NYK1); assay: TLR ligand screening: NF-κB SEAP reporter, agonist; assay type: cell-based; settings: HEK293 cells expressing TLR7; NTR001 10 uM, inosine 100 uM
T7 construct: expressed in transfected cells; host or cells: HEK293
T7 sequence (Q9NYK1 27-1049): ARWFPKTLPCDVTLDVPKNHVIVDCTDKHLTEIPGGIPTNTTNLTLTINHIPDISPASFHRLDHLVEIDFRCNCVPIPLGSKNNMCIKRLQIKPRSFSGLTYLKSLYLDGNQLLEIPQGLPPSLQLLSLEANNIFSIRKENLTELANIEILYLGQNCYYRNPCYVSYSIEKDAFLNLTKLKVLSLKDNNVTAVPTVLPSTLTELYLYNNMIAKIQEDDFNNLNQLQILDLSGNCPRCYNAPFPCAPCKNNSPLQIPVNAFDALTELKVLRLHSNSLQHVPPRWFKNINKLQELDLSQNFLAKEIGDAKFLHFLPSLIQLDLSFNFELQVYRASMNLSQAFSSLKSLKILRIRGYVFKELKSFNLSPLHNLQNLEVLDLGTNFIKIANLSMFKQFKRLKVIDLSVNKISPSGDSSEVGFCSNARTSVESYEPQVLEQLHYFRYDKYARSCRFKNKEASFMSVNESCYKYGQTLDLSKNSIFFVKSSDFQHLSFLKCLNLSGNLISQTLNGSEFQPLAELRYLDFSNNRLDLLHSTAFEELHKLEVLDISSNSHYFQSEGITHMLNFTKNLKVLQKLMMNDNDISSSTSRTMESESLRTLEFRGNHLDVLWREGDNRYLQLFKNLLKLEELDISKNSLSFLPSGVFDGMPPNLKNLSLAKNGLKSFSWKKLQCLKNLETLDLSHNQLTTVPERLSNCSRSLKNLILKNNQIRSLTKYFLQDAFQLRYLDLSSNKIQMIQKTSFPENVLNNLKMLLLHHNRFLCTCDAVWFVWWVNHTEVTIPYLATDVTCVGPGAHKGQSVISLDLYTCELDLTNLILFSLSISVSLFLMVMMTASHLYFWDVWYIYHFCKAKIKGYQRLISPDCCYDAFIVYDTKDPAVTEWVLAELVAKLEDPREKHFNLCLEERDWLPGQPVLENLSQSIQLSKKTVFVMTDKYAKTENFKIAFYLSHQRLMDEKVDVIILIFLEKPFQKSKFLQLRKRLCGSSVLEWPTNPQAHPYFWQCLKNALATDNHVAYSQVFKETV
Method: as §1

B16 tumors = assay: Mouse melanoma model, NTR001 and cyclophosphamide; assay type: in vivo, C57BL/6 mice; settings: cyclophosphamide 100 mg/kg IP single dose
Method: Method: Cancer cells were injected subcutaneously in right flank of each mouse, 1×10^4 cells in 0.1 ml PBS with 20% Matrigel. Treatment with the NTR001 was initiated on day 6 after injection of tumor cells. Tumor volume and survival were recorded every 3-4 days.

SMILES | stimulatory effect on human TLR9 (NF-κB activation) (human TLR9) | stimulatory effect on human TLR2 (NF-κB activation) (human TLR2) | stimulatory effect on human TLR4 (NF-κB activation) (human TLR4) | stimulatory effect on human TLR5 (NF-κB activation) (human TLR5) | stimulatory effect on human TLR8 (NF-κB activation) (human TLR8) | stimulatory effect on human TLR3 (NF-κB activation) (human TLR3) | stimulatory effect on human TLR7 (NF-κB activation) (human TLR7) | survival (B16 tumors)
OC[C@H]1O[C@@H](n2cnc3c(O)ncnc32)[C@H](O)[C@@H]1O [Inosine] | do not directly exhibit a stimulatory effect | do not directly exhibit a stimulatory effect | do not directly exhibit a stimulatory effect | do not directly exhibit a stimulatory effect | do not directly exhibit a stimulatory effect | do not directly exhibit a stimulatory effect | do not directly exhibit a stimulatory effect | –
Nc1nc2c(ncn2[C@@H]2O[C@H](CO)[C@@H](O)[C@H]2O)c(=O)[nH]1 [Guansoine, guanosine] | – | significant stimulatory effect | significant stimulatory effect | – | – | – | – | –
O=P1(N(CCCl)CCCl)NCCCO1 (stereo not shown) [Cyclcophosphamide, Cyclophosphamide] | – | – | – | – | – | – | – | 30%
